The results in this text go back to patent US20180169123A1, “COMBINATION THERAPY WITH A FLAVAGLINE AND 2-DEOXYGLUCOSE” (Ruprecht-Karls-Universitat Heidelberg, priority 2015, published 2018).

What all share (type): cell-based
Series [1] deals with tumor cell lines. The series is described as follows: MTT cell viability assay, number of responding cell lines (Example 1). The following applies: 2-DG 1 mM alone; 48 h. As to the method:
(§1) The MTT (MethylThiazol Tetrazolium) assay was used to determine cell viability. The MTT assay is a colorimetric method for measuring the activity of cellular enzymes that reduce the tetrazolium dye, MTT, to its insoluble formazan, giving a purple color. This method was used in the present experiments to reflect the number of viable cells present and to measure cytotoxicity (loss of viable cells).
Cells were plated in flat-bottom 96-well plates at a cell number of 10,000 in 100 p of medium per well. RPMI 1640 (Roswell Park Memorial Institute, Gibco, City, State) supplemented with fetal bovine serum (10%) and penicillin/streptomycin (1%) medium was used for cell culturing and plating. After plating, cells were incubated at 37° C. in an incubator at 5% CO2 concentration for 24 hours before the beginning of treatment. […]
To determine the amount of viable cells after the treatment, the absorption was measured at a wave length of 485 nm with the help of an ELISA reader device (TECAN GENios, Austria). […] Mean values and standard deviations were calculated from the measured values after background subtraction. As background, absorption was measured in wells containing medium alone.
2-DG treatment at a concentration of 1 mM induced a significant response (reduction of viability to less than 80% of the untreated cells) in 9 out of 15 cell lines analyzed.
In general terms: Tetrazolium assays rely on reduction of a dye to a coloured formazan, in cell work by metabolically active cells.

Series [2] deals with U138MG cells. The series is described as follows: Cell viability with 2DG alone or combined with Rocaglamide (Example 4, FIG. 3). The following applies: Mus musculus, U138-MG, 4 mM 2DG alone. As to the method: (§2) FIG. 3: Cell viability of […] cells treated with 2DG (1 mM or 4 mM) and of PBMCs treated with 2DG (1 mM) alone or in combination with Rocaglamide (0.1 μM, 0.025 μM, 0.01 μM).
In order to evaluate the potential of Rocaglamide to reduce the dose of 2DG while at the same time maintaining its antitumoral effect, combinations of different doses of 2DG with Rocaglamide were evaluated in U138MG cells ([…]). The cell-killing effect of the combination of Rocaglamide and 2DG was then compared with the effect of 2DG alone.

A short description of series [3]: in vitro. The following applies: human. Here is the method: as §2
In series [4] the test system is NCH89. The series is described as follows: MTT cell viability assay, tumor cell line (Example 1). The following applies: Homo sapiens, 48 h, relative to untreated cells, read-out: Cell viability after treatment. As to the method:
as §1
(§3) Cells were plated in flat-bottom 96-well plates at a cell number of 10,000 in 100 p of medium per well. RPMI 1640 (Roswell Park Memorial Institute, Gibco, City, State) supplemented with fetal bovine serum (10%) and penicillin/streptomycin (1%) medium was used for cell culturing and plating. After plating, cells were incubated at 37° C. in an incubator at 5% CO2 concentration for 24 hours before the beginning of treatment. After that, when cells became adherent, the medium was removed and 2-DG and rocaglamide were added to the cells at a concentration of 1 mM and 0.1 μM, respectively. After 48 hours of incubation, 20 μl of MTT reagent was added to each well. Cells were incubated for 1 hour at 37° C. before colorimetric assessment
(§4) To determine the amount of viable cells after the treatment, the absorption was measured at a wave length of 485 nm with the help of an ELISA reader device (TECAN GENios, Austria). All measurements were carried out in quadruplicate. Mean values and standard deviations were calculated from the measured values after background subtraction. As background, absorption was measured in wells containing medium alone.

The test system of series [5] is HT29. The description is as above. The following applies: Homo sapiens, 48 h, relative to untreated cells, read-out: Cell viability after treatment. Here is the method: as §1, §3, §4
Series [6] deals with LNT229. The description is as above. The following applies: 48 h, relative to untreated cells, read-out: Cell viability after treatment. Here is the method: as §1, §3, §4
Series [7] deals with RKO. The description is as above. The following applies: Homo sapiens, 48 h, relative to untreated cells, read-out: Cell viability after treatment. Here is the method:
as §1, §3, §4

Series [8] deals with SMA560. The series is described as above. The following applies: Mus musculus, 48 h, relative to untreated cells, read-out: Cell viability after treatment. As to the method: as §1, §3, §4
The subject of series [9] is H146. The series is described as above. The following applies: Homo sapiens, 48 h, relative to untreated cells, read-out: Cell viability after treatment. Here is the method: as §1, §3, §4
Series [10] has as its system NCH82. Described as above. The following applies: Homo sapiens, 48 h, relative to untreated cells, read-out: Cell viability after treatment. Here is the method:
as §1, §3, §4

The test system of series [11] is K073. Described as above. The following applies: 48 h, relative to untreated cells, read-out: Cell viability after treatment. As to the method:
as §1, §3, §4

The subject of series [12] is C3. The series is described as above. The following applies: 48 h, relative to untreated cells, read-out: Cell viability after treatment. As to the method: as §1, §3, §4
Series [13] has as its system GL261. The series is described as above. The following applies: Mus musculus, 48 h, relative to untreated cells, read-out: Cell viability after treatment. Here is the method: as §1, §3, §4
Series [14] deals with HCT116. The description is as above. The following applies: Homo sapiens, 48 h, relative to untreated cells, read-out: Cell viability after treatment. As to the method:
as §1, §3, §4

For series [15], the system named is U373. The description is as above. The following applies: Homo sapiens, U373 MG, 48 h, relative to untreated cells, read-out: Cell viability after treatment. Here is the method:
as §1, §3, §4

Series [16] has as its system SW480. The description is as above. The following applies: Homo sapiens, 48 h, relative to untreated cells, read-out: Cell viability after treatment. Here is the method: as §1, §3, §4
Series [17] has as its system normal human PBMCs. In words: MTT assay, IC50 of flavaglines with and without 2DG (Example 2). The following applies: normal human PBMCs (FIG. 1C); flavagline 10-100 nM with 1 mM 2DG versus flavagline alone; 48 h. The source says: (§5) FIG. 1: Determination of IC50 of Rocaglamide and FL3. Treatment schemes are illustrated by different line patterns explained on the right side of each graphic. Solid lines with squares represent treatment with Rocaglamide, dotted lines with circles represent treatment with Rocaglamide and 2DG in combination, dotted lines with triangles represent treatment with FL3, and dotted lines with rhombus represent treatment with FL3 and 2DG in combination. X axis represents treatment doses of flavaglines (Rocaglamide or FL3), y axis represents relative cell viability (determined by MT assay) in %; cells not treated with flavaglines are used as a reference (corresponding to 100% viability). A. HCT116 cells. B. HT29 cells. C: normal human PBMCs.
(§6) The MTT (MethylThiazol Tetrazolium) assay was the same as in Example 1. Colorectal cancer cells (HCT116 and HT29) as well as normal human PBMCs were plated in flat-bottom 96-well plates at a cell number of 10,000 and 100,000, respectively, in 100 μl of medium per well. […] (Roswell Park Memorial Institute, Gibco, Paisley, UK) supplemented with 10% fetal bovine serum and 1% penicillin/streptomycin (Gibco, N.Y., USA) medium was used for cell culturing and plating of tumor cells. Medium for PBMCs consisting of Iscove's modified DMEM (IMDM) supplemented by 10% human AB serum, 1% L-glutamin and 0,05% gentamycin was used for plating PBMCs. After plating, rocaglamide and FL3 were applied at five increasing concentrations (10, 25, 50, 75 and 100 nM) as single substances and in combination with 1 mM 2DG. Cells were then incubated with drugs in a CO2 chamber at 5% CO2 concentration (Memmert Incubator, Büchenbach, Germany) for 48 hours. Afterwards, 20 μl of MTT reagent (Promega, Madison, Wis., USA) were added to each well. Cells were incubated for 1 hour at 37° C. as above. To determine the amount of viable cells after the treatment the absorption was measured at a wave length of 485 nm in ELISA reader device (TECAN GENios, Salzburg, Austria). All measurements were carried out in quadruplicates.
(§7) Mean values and standard deviations were calculated from the measured values after background subtraction. As background, absorption was measured in wells containing only medium.

Series [18] concerns HCT116 cells. The description is as above. The following applies: HCT116 (FIG. 1A); flavagline 10-100 nM with 1 mM 2DG versus flavagline alone; 48 h.
From the text: as §5, §6, §7

For series [19], the system named is HT29 cells. The series is described as above. The following applies: HT29 (FIG. 1B); flavagline 10-100 nM with 1 mM 2DG versus flavagline alone; 48 h.
From the text: as §5, §6, §7

Take `OC[C@H]1OC(O)C[C@@H](O)[C@@H]1O` (stereo partly drawn) [2DG, (4R,5S,6R)-6-(hydroxymethyl)oxane-2,4,5-triol]: the “cell lines with significant response (reduction of viability to less than 80% of the untreated cells)” value in series [1] is recorded as 9 out of 15. Further, the viability at 4000 µM in [2] (U136MG cells, read-out: cell viability compared to the untreated control) came to 46%. The cytotoxicity at 4000 µM in series [2] (U138MG cells, read-out: reduction of cell viability compared to the untreated control) stood at 54%. Besides, the viability at 48 h, 1 mM in [3] is 81.7%. Also, the viability at 1000 µM in series [4] (2DG 1 mM alone) came out at 83.7%; in [5] (HT-29, 2DG 1 mM alone), 87.5%; in series [6] (2DG 1 mM alone), 113%; in series [7] (2DG 1 mM alone), 118%; in [8] (SMA-560, 2DG 1 mM alone), 102%; in series [9] (NCI-H146, 2DG 1 mM alone) it was 90.5%. The viability at 1000 µM in series [10] (2DG 1 mM alone) was found to be 68.3%; in [11] (2DG 1 mM alone), 89.6%; in [12] (2DG 1 mM alone), 103%; in series [13] (2DG 1 mM alone), 63.8%; in series [14] (HCT-116, 2DG 1 mM alone) it was 82%; in series [15] (2DG 1 mM alone) it was 95.6%. Also, the viability at 1000 µM in [16] (2DG 1 mM alone) worked out at 70.8%.
`COc1cc(OC)c2c(c1)O[C@@]1(c3ccc(Br)cc3)[C@H](c3ccccc3)C[C@@H](O)[C@@]21O` [FL3, (1R,3S,3aR,8bS)-3a-(4-Bromophenyl)-6,8-dimethoxy-3-phenyl-2,3,3a,8b-tetrahydro-1H-cyclopenta[b]benzofuran-1,8b-diol]: the “change of IC50 of the flavagline in the presence of 2DG” value in series [17] was “increased”. Besides, the “change of IC50 of the flavagline in combination with 2DG” value in series [18] and in series [19] was “substantially reduced” in each case.
With `COc1ccc([C@@]23Oc4cc(OC)cc(OC)c4[C@]2(O)[C@H](O)[C@H](C(=O)N(C)C)[C@H]3c2ccccc2)cc1` [Rocaglamide, (1R,2R,3S,3aR,8bS)-1,8b-dihydroxy-6,8-dimethoxy-3a-(4-methoxyphenyl)-N,N-dimethyl-3-phenyl-2,3-dihydro-1H-cyclopenta[b][1]benzofuran-2-carboxamide], in series [17], the “change of IC50 of the flavagline in the presence of 2DG” value is reported as “increased”. Further, the “change of IC50 of the flavagline in combination with 2DG” value in [18] and in series [19] was “substantially reduced” each time. The viability at 0.1 µM is 56.6% in series [4] (rocaglamide 0.1 μM alone); 52.3% in series [5] (HT-29, rocaglamide 0.1 μM alone); 100% in [6] (rocaglamide 0.1 μM alone); 42.9% in series [7] (rocaglamide 0.1 μM alone); 92.8% in series [8] (SMA-560, rocaglamide 0.1 μM alone); 47.3% in series [9] (NCI-H146, rocaglamide 0.1 μM alone). For the same compound, the viability at 0.1 µM stood at 63.2% in series [10] (rocaglamide 0.1 μM alone); 35.9% in [11] (rocaglamide 0.1 μM alone); 45.3% in [12] (rocaglamide 0.1 μM alone); 58.2% in series [13] (rocaglamide 0.1 μM alone); 14.8% in series [14] (HCT-116, rocaglamide 0.1 μM alone); 76.4% in series [15] (rocaglamide 0.1 μM alone). In addition, in [16] (rocaglamide 0.1 μM alone), the viability at 0.1 µM is 59.5%.

By viability is commonly meant a read-out of living cells in per cent, often relative to untreated cells.
